The record followed here is patent US11912994B2 (The General Hospital Corporation, priority 2015, dated 2024).

Common to all, as to assay type: cell-based, mouse
Data set [1] deals with GFP transgene on the inactive X (Xi-TgGFP fibroblasts). The experiment in a line: Assay for the reactivation of Xi-TgGFP (GFP RT-qPCR). The following applies: single drug 0.3 μM, shControl. An excerpt: Xi-TgGFP (68-5-11) tail-tip fibroblasts (TTF) were initially derived from a single female pup, a daughter of a cross between aM castaneus male and aM musculus female, homozygous for an X-linked GFP transgene driven by a strong, ubiquitous promoter (58). The fibroblasts were immortalized by SV40 transformation, and clonal lines were derived from individual GFP-negative cells selected by fluorescence-activated cell sorting. In our experience, occasional clones with undetectable GFP expression nevertheless have the transgene located on the active X chromosome.
A cocktail of 3 shRNA viruses were used for infections (Table 2) followed with puromycin selection using standard methodology. In all the experiments, polyclonal knock down cells were used.
RNA was isolated by Trizol twice, with an intermittent TurboDNase treatment after the first isolation for 30 min at 37° C. One μg RNA was used for each of the RT+ and RT− reactions (Superscript III, Invitrogen) followed by the SYBR green qPCR using the primers listed in Table 3, with annealing temperature of 60° C. for 45 cycles. The relative efficiency of Xi-TgGFP reactivations was calculated by comparing to U1 snRNA as the internal control.

A short description of data set [2]: Drug concentration relative to IC50 / toxicity in fibroblasts. The following applies: 0.3 μM.
Data set [3] deals with Mecp2 on the Xi (Mecp2:luciferase fusion). The experiment in a line: Luciferase screen in Mecp2-Luc fusion Xi cell line. Here is the method:
To determine whether an LNA targeting XIST could also be used in addition to or as an alternative to an agent described herein, experiments were performed in the following cells: immortalized monoclonal MEFs with the reporter GFP (Bird) or LUC (Bedalov) fused to Mecp2, on the Xi or Xa, immortalized human fibroblasts from a […] with Rett syndrome (Coriell) and primary mouse cortical neurons.
The LNAs were designed with the Exiqon web tool. Xist LNA for mouse ([…]; SEQ ID NO:50) targets exon 1 between rep C and rep D. The human Xist LNAs target the following sequences: A1: […]; SEQ ID NO:51; A2: […]; SEQ ID NO:52; A3: […]; SEQ ID NO:53. […] 5-azadeoxycitidine (in DMSO) was added to a final concentration of 0.5 μM (except in the titration experiment 0.1-2.5 μM).
Luciferase experiments were performed on a Microbeta2 LumiJet with a luciferase assay system (Promega). […] Afterwards, the cells were trypsinized, washed, and lysed using cell culture lysis reagent. Normalized measurements were performed in 96 well plates, during 10 seconds after a 2 second incubation period.

The mark [4] stands for this setting: trial 1, 20 uM LNA, 0.5 uM aza, 3 days, 1 10^5 cells/ml, 24-well.

For the compound `Nc1ncn([C@@H]2O[C@H](CO)[C@@H](O)[C@H]2O)c(=O)n1` [5′-azacytidine, 4-amino-1-beta-D-ribofuranosyl-s-triazin-2(1H)-one], in data set [1], the “GFP reactivation” value is reported as “minimally reactivated GFP”. For the same compound, in data set [2], the “Toxicity at the concentration used” value is listed as “nontoxic”.
As for “xist: Xist LNA for mouse (TCTTGGTTACTAACAG; SEQ ID NO:50), targets exon 1 between rep C and rep D (LNA-modified, pattern not given here)”, in data set [3] (setting [4]), the LCPS was 0 and the “raw CPS” value worked out at 29.8.
With `Nc1ncn([C@H]2C[C@H](O)[C@@H](CO)O2)c(=O)n1` [AzadC, 5-aza-2′-deoxycytidine], in data set [3] (added to Xist LNA, 0.5 μM, reporter not specified), the “Reactivation together with Xist LNA” value is reported as “Synergistic reactivation”.
For the compound `COc1cc([C@@H]2c3cc4c(cc3[C@@H](O[C@@H]3O[C@@H]5CO[C@@H](C)O[C@H]5[C@H](O)[C@H]3O)[C@H]3COC(=O)[C@H]23)OCO4)cc(OC)c1O` [etoposide], the “GFP reactivation” value in data set [1] is listed as “minimally reactivated GFP”.
